For this assay, the target named is human F508del-CFTR (Homo sapiens, UniProt P13569, DEL508-508). Nature of the assay: F508del-CFTR cell surface expression (corrector activity), DiscoveRx ß-galactosidase complementation chemiluminescence assay in recombinant U2OS cell line.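 For all read-outs here: U2OS cells co-expressing ProLink-tagged F508del-CFTR and a membrane-anchored enzyme acceptor, where more surface CFTR restores β-galactosidase activity measured by chemiluminescence.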 Particulars: U2OS cell line, 16h compound incubation; for EC50: EC50, F508del-CFTR cell surface expression, geomean values; for Emax: U2OS, in relation to the Emax of the corrector lumacaftor (=100%), arithmetic mean values.
human F508del-CFTR, sequence (P13569 with tags, fused parts or gaps DEL508-508): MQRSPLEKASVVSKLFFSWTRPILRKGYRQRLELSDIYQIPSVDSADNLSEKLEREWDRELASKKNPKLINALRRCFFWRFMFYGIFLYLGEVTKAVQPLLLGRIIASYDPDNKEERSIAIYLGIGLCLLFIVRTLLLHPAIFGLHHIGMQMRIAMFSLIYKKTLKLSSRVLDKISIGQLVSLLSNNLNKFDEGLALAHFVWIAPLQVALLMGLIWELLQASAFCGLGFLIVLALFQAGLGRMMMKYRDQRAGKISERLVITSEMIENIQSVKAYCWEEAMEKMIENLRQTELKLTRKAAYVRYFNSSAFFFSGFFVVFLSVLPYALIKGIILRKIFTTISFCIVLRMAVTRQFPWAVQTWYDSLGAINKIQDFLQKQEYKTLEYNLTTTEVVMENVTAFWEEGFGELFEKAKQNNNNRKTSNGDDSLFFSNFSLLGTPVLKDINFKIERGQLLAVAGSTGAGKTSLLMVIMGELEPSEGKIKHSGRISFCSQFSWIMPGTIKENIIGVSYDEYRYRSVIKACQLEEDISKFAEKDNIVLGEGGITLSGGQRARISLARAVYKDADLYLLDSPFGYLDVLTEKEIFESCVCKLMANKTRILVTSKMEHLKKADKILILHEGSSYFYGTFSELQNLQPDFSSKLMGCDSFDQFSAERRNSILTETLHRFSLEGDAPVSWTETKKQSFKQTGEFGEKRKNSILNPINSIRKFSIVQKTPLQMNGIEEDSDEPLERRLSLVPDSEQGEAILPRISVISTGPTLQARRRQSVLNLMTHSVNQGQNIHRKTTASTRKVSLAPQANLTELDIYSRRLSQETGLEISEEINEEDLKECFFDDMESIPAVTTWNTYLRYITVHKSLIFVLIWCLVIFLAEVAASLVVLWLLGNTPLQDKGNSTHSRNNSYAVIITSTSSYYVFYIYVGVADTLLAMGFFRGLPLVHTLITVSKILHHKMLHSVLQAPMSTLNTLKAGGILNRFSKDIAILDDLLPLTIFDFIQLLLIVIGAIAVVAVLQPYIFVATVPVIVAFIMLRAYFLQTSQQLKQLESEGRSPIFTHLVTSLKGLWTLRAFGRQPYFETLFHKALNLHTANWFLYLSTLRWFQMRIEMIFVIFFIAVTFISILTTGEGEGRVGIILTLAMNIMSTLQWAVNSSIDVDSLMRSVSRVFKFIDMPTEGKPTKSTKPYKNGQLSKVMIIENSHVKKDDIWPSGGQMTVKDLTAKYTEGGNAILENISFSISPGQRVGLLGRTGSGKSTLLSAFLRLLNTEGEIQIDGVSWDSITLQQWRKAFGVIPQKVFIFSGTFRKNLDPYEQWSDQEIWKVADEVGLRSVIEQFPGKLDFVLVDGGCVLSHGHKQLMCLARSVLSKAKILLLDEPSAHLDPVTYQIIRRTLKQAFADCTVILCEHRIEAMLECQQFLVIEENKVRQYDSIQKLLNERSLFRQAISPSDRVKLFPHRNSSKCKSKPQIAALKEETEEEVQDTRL

For the compound `CC(C)C[C@H]1C(=O)N(C)CC(=O)N[C@H](Cc2ccccc2)COc2cc3c(cc2C(=O)N[C@H](C(=O)NCCc2ccc4c(c2)OCCO4)CC(=O)N1C)OCO3` [Example 226, (7R,13S,17S)-7-benzyl-N-(2-(2,3-dihydrobenzo[b][1,4]dioxin-6-yl)ethyl)-13-isobutyl-11,14-dimethyl-9,12,15,19-tetraoxo-6,7,8,9,10,11,12,13,14,15,16,17,18,19-tetradecahydro-[1,3]dioxolo[4′,5′:4,5]benzo[1,2-p][1]oxa[4,7,10,14]tetraazacycloheptadecine-17-carboxamide], the EC50 (usually the concentration giving half of the maximal effect) was 520 nM and the Emax (as a rule, the size of the effect at its maximum, as opposed to the concentration needed) is 213%.

As for `CCc1ccc(CCNC(=O)[C@@H]2CC(=O)N(C)[C@@H](CC(C)C)C(=O)N(C)CC(=O)N[C@H](Cc3ccccc3)COc3cc4c(cc3C(=O)N2)OCO4)cc1` [Example 227, (7R,13S,17S)-7-benzyl-N-(4-ethylphenethyl)-13-isobutyl-11,14-dimethyl-9,12,15,19-tetraoxo-6,7,8,9,10,11,12,13,14,15,16,17,18,19-tetradecahydro-[1,3]dioxolo[4′,5′:4,5]benzo[1,2-p][1]oxa[4,7,10,14]tetraazacycloheptadecine-17-carboxamide], the EC50 was determined as 290 nM and the Emax stood at 103%.

Take `COc1ccc2c(c1)C(=O)N[C@H](C(=O)NCCc1ccc3c(c1)OCO3)CC(=O)N(C)[C@@H](CC(C)C)C(=O)N(C)CC(=O)N[C@H](Cc1ccccc1)CO2` [Example 228, (3R,9S,13S)-N-(2-(benzo[d][1,3]dioxol-5-yl)ethyl)-3-benzyl-9-isobutyl-17-methoxy-7,10-dimethyl-5,8,11,15-tetraoxo-2,3,4,5,6,7,8,9,10,11,12,13,14,15-tetradecahydrobenzo[p][1]oxa[4,7,10,14]tetraazacycloheptadecine-13-carboxamide]: the EC50 came to 460 nM and the Emax was 190%.

Consider `Cc1ccc2c(c1)C(=O)N[C@H](C(=O)NCCc1ccc3c(c1)OCO3)CC(=O)N(C)[C@@H](CC(C)C)C(=O)N(C)CC(=O)N[C@H](Cc1ccccc1)CO2` [Example 229, (3R,9S,13S)-N-(2-(benzo[d][1,3]dioxol-5-yl)ethyl)-3-benzyl-9-isobutyl-7,10,17-trimethyl-5,8,11,15-tetraoxo-2,3,4,5,6,7,8,9,10,11,12,13,14,15-tetradecahydrobenzo[p][1]oxa[4,7,10,14]tetraazacycloheptadecine-13-carboxamide], for which the EC50 is 279 nM and the Emax stood at 117%.

As for `COc1cccc(CCNC(=O)[C@@H]2CC(=O)N(C)[C@@H](CC(C)C)C(=O)N(C)CC(=O)N[C@H](Cc3ccccc3)COc3ccc(C)cc3C(=O)N2)c1` [Example 230, (3R,9S,13S)-3-benzyl-9-isobutyl-N-(3-methoxyphenethyl)-7,10,17-trimethyl-5,8,11,15-tetraoxo-2,3,4,5,6,7,8,9,10,11,12,13,14,15-tetradecahydrobenzo[p][1]oxa[4,7,10,14]tetraazacycloheptadecine-13-carboxamide], the EC50 was 482 nM and the Emax was 103%.

As to `COc1cccc(CCNC(=O)[C@@H]2CC(=O)N(C)[C@@H](CC(C)C)C(=O)N(C)CC(=O)N[C@H](Cc3ccccc3)COc3ccc(OC)cc3C(=O)N2)c1` [Example 231, (3R,9S,13S)-3-benzyl-9-isobutyl-17-methoxy-N-(3-methoxyphenethyl)-7,10-dimethyl-5,8,11,15-tetraoxo-2,3,4,5,6,7,8,9,10,11,12,13,14,15-tetradecahydrobenzo[p][1]oxa[4,7,10,14]tetraazacycloheptadecine-13-carboxamide], the EC50 came out at 592 nM and the Emax is 173%.

In the case of `COc1cccc(CCNC(=O)[C@@H]2CC(=O)N(C)[C@@H](CC(C)C)C(=O)N(C)CC(=O)N[C@H](Cc3ccccc3)COc3cc(OC)ccc3C(=O)N2)c1` [Example 232, (3R,9S,13S)-3-benzyl-9-isobutyl-18-methoxy-N-(3-methoxyphenethyl)-7,10-dimethyl-5,8,11,15-tetraoxo-2,3,4,5,6,7,8,9,10,11,12,13,14,15-tetradecahydrobenzo[p][1]oxa[4,7,10,14]tetraazacycloheptadecine-13-carboxamide], the EC50 is 526 nM and the Emax turned out to be 105%.

For the compound `COc1cccc(CCNC(=O)[C@@H]2CC(=O)N(C)[C@@H](CC(C)C)C(=O)N(C)CC(=O)N[C@H](Cc3ccccc3)COc3cc(C)ccc3C(=O)N2)c1` [Example 233, (3R,9S,13S)-3-benzyl-9-isobutyl-N-(3-methoxyphenethyl)-7,10,18-trimethyl-5,8,11,15-tetraoxo-2,3,4,5,6,7,8,9,10,11,12,13,14,15-tetradecahydrobenzo[p][1]oxa[4,7,10,14]tetraazacycloheptadecine-13-carboxamide], the EC50 was 610 nM and the Emax worked out at 92%.

For `CC(C)C[C@H]1C(=O)N(C)CC(=O)N[C@H](Cc2ccccc2)COc2ccc(F)cc2C(=O)N[C@H](C(=O)NCCc2ccc3c(c2)OCO3)CC(=O)N1C` [Example 234, (3R,9S,13S)-N-(2-(benzo[d][1,3]dioxol-5-yl)ethyl)-3-benzyl-17-fluoro-9-isobutyl-7,10-dimethyl-5,8,11,15-tetraoxo-2,3,4,5,6,7,8,9,10,11,12,13,14,15-tetradecahydrobenzo[p][1]oxa[4,7,10,14]tetraazacycloheptadecine-13-carboxamide], the EC50 is 471 nM and the Emax was found to be 110%.

As for `Cc1cccc2c1C(=O)N[C@H](C(=O)NCCc1ccc3c(c1)OCO3)CC(=O)N(C)[C@@H](CC(C)C)C(=O)N(C)CC(=O)N[C@H](Cc1ccccc1)CO2` [Example 235, (3R,9S,13S)-N-(2-(benzo[d][1,3]dioxol-5-yl)ethyl)-3-benzyl-9-isobutyl-7,10,16-trimethyl-5,8,11,15-tetraoxo-2,3,4,5,6,7,8,9,10,11,12,13,14,15-tetradecahydrobenzo[p][1]oxa[4,7,10,14]tetraazacycloheptadecine-13-carboxamide], the EC50 is 825 nM and the Emax is 117%.

For `CC(C)C[C@H]1C(=O)N(C)CC(=O)N[C@H](Cc2ccccc2)COc2cc3ccccc3cc2C(=O)N[C@H](C(=O)NCCc2ccc3c(c2)OCO3)CC(=O)N1C` [Example 236, (3R,9S,13S)-N-(2-(benzo[d][1,3]dioxol-5-yl)ethyl)-3-benzyl-9-isobutyl-7,10-dimethyl-5,8,11,15-tetraoxo-2,3,4,5,6,7,8,9,10,11,12,13,14,15-tetradecahydronaphtho[2,3-p][1]oxa[4,7,10,14]tetraazacycloheptadecine-13-carboxamide], the EC50 came out at 435 nM and the Emax turned out to be 126%.

With `COc1cccc(CCNC(=O)[C@@H]2CC(=O)N(C)[C@@H](CC(C)C)C(=O)N(C)CC(=O)N[C@H](Cc3ccccc3)COc3ccc(Cl)cc3C(=O)N2)c1` [Example 237, (3R,9S,13S)-3-benzyl-17-chloro-9-isobutyl-N-(3-methoxyphenethyl)-7,10-dimethyl-5,8,11,15-tetraoxo-2,3,4,5,6,7,8,9,10,11,12,13,14,15-tetradecahydrobenzo[p][1]oxa[4,7,10,14]tetraazacycloheptadecine-13-carboxamide], the EC50 was found to be 300 nM and the Emax came to 128%.

For the compound `COc1cccc(CCNC(=O)[C@@H]2CC(=O)N(C)[C@@H](CC(C)C)C(=O)N(C)CC(=O)N[C@H](Cc3ccccc3)COc3cc4ccccc4cc3C(=O)N2)c1` [Example 238, (3R,9S,13S)-3-benzyl-9-isobutyl-N-(3-methoxyphenethyl)-7,10-dimethyl-5,8,11,15-tetraoxo-2,3,4,5,6,7,8,9,10,11,12,13,14,15-tetradecahydronaphtho[2,3-p][1]oxa[4,7,10,14]tetraazacycloheptadecine-13-carboxamide], the EC50 amounted to 375 nM and the Emax is 153%.

For the compound `CCc1ccc(CCNC(=O)[C@@H]2CC(=O)N(C)[C@@H](CC(C)C)C(=O)N(C)CC(=O)N[C@H](Cc3ccccc3)COc3cccc(OC)c3C(=O)N2)cc1` [Example 239, (3R,9S,13S)-3-benzyl-N-(4-ethylphenethyl)-9-isobutyl-16-methoxy-7,10-dimethyl-5,8,11,15-tetraoxo-2,3,4,5,6,7,8,9,10,11,12,13,14,15-tetradecahydrobenzo[p][1]oxa[4,7,10,14]tetraazacycloheptadecine-13-carboxamide], the EC50 is 514 nM and the Emax amounted to 142%.

For the compound `COc1cccc(CCNC(=O)[C@@H]2CC(=O)N(C)[C@@H](CC(C)C)C(=O)N(C)CC(=O)N[C@H](Cc3ccccc3)COc3ccsc3C(=O)N2)c1` [Example 240, (6R,12S,16S)-6-benzyl-12-isobutyl-N-(3-methoxyphenethyl)-10,13-dimethyl-8,11,14,18-tetraoxo-5,6,7,8,9,10,11,12,13,14,15,16,17,18-tetradecahydrothieno[2,3-p][1]oxa[4,7,10,14]tetraazacycloheptadecine-16-carboxamide], the EC50 is 1260 nM and the Emax is 77%.

As to `COc1cccc(CCNC(=O)[C@@H]2CC(=O)N(C)[C@@H](CC(C)C)C(=O)N(C)CC(=O)N[C@H](Cc3ccccc3)COc3nc(C)sc3C(=O)N2)c1` [Example 241, (6R,12S,16S)-6-benzyl-12-isobutyl-N-(3-methoxyphenethyl)-2,10,13-trimethyl-8,11,14,18-tetraoxo-5,6,7,8,9,10,11,12,13,14,15,16,17,18-tetradecahydrothiazolo[5,4-p][1]oxa[4,7,10,14]tetraazacycloheptadecine-16-carboxamide], the EC50 was 1660 nM and the maximal response (Emax) is 92%.

For `[2H]C([2H])([2H])Oc1cccc2c1C(=O)N[C@H](C(=O)NCCc1ccc3c(c1)OCO3)CC(=O)N(C)[C@@H](CC(C)C)C(=O)N(CCC1CCCCC1)CC(=O)N[C@H](Cc1ccccc1)CO2` [Example 242, (3R,9S,13S)-N-(2-(benzo[d][1,3]dioxol-5-yl)ethyl)-3-benzyl-7-(2-cyclohexylethyl)-9-isobutyl-16-(methoxy-d3)-10-methyl-5,8,11,15-tetraoxo-2,3,4,5,6,7,8,9,10,11,12,13,14,15-tetradecahydrobenzo[p][1]oxa[4,7,10,14]tetraazacycloheptadecine-13-carboxamide], the EC50 was found to be 177 nM and the Emax was 232%.

These data come from patent US20240208992A1, “MACROCYCLES AS CFTR MODULATORS” (Idorsia Pharmaceuticals Ltd, priority 2021, published 2024).
